The test system of this assay is LPS-induced TNF-α release. The experiment in a line: inhibition of LPS-induced TNF-α release from THP1 cells (TNF-α by ELISA). In kind it is cell-based. The settings on record: Homo sapiens, THP-1, LPS 2 mg/ml, 0.5 hour preincubation with compound, 3 hours at 37° C. with LPS, read-out: IC50 (concentration of test compound which brings about 50% inhibition of LPS-induced TNF-α release). The protocol: Aliquots (200 μl) of the cell suspension were plated out on 96 well culture plates and incubated for 0.5 hour at 37° C. prior to the addition of the test compounds. The latter were dissolved in dimethyl sulphoxide (DMSO) to a stock concentration of 1.2 mM which was diluted with phosphate buffered saline/10% DMSO solution to provide test compounds in final concentrations of 10^-9 to 10^-5 M, with each concentration being tested in duplicate. The cells were incubated with the test compounds for 0.5 hour at 37° C., LPS (bacterial lipopolysaccharide) was then added to a concentration of 2 mg/ml and incubation was continued for 3 hours at 37° C. in an atmosphere containing 5% CO2 and at 95% relative humidity. After centrifugation at 260 g for 10 minutes an aliquot of each supernatant was removed and the amount of TNF-α was estimated by ELISA (R & D Systems Europe Ltd., Abingdon, England).
A general note: In an ELISA, binding on a coated surface is turned into a signal by an enzyme label.
For the compound `CC(C)C[C@@H](C(=O)NN1C(=O)CNC1=O)[C@H](C/C=C/c1ccccc1)C(=O)NO` [Compound A, (E)-2(R)-[1(S)-(Hydroxycarbamoyl)-4-phenyl-3-butenyl]-4-methyl-N-(2,5-dioxo-1-imidazolidinyl)valeramide], the IC50 is 0.28 µM.

Regarding `CC(C)C[C@@H](C(=O)NN1C(=O)CCNC1=O)[C@H](C/C=C/c1ccccc1)C(=O)NO` [Compound B, (E)-N-(Hexahydro-2,6-dioxo-1-pyrimidinyl)-2(R)-[1(S)-(hydroxycarbamoyl)-4-phenyl-3-butenyl]-4-methylvaleramide], the IC50 came to 0.382 µM. Turning to `CC(C)C[C@@H](C(=O)NN1C(=O)CNC1=O)[C@H](CCCC1CCCCC1)C(=O)NO` [Compound C, 2(R)-[4-Cyclohexyl-1(S)-(hydroxycarbamoyl)butyl]-4-methyl-N-(2,5-dioxo-1-imidazolidinyl)valeramide], the IC50 was 0.242 µM. Turning to `CC(C)C[C@@H](C(=O)NN1C(=O)NCCS1(=O)=O)[C@H](C/C=C/c1ccccc1)C(=O)NO` [Compound D, (E)-N-(Tetrahydro-3-oxo-2H-1,2,4-thiadiazin-2-yl)-2(R)-[1(S)-(hydroxycarbamoyl)-4-phenyl-3-butenyl]-4-methylvaleramide S,S-dioxide], the IC50 was determined as 0.389 µM. Consider `CC(C)C[C@@H](C(=O)NN1C(=O)CNCC1=O)[C@H](CCCc1ccccc1)C(=O)NO` [Compound E, 2(R)-[1(S)-(Hydroxycarbamoyl)-4-phenylbutyl]-4-methyl-N-(2,6-dioxo-1-piperazinyl)valeramide p-toluenesulphonate], for which the IC50 turned out to be 1.45 µM. As for `CC(C)C[C@@H](C(=O)NN1C(=O)N[C@@H](C(C)C)C1=O)[C@H](CCCc1ccccc1)C(=O)NO` [Compound F, 2(R)-[1(S)-(Hydroxycarbamoyl)-4-phenylbutyl]-N-(4(S)-isopropyl-2,5-dioxo-1-imidazolidinyl)-4-methylvaleramide], the IC50 is 0.156 µM. Consider `CC[C@H](C)[C@@H]1NC(=O)N(NC(=O)[C@H](CC(C)C)[C@H](CCCc2ccccc2)C(=O)NO)C1=O` [Compound G], for which the IC50 was determined as 0.147 µM. In the case of `CSCC[C@@H]1NC(=O)N(NC(=O)[C@H](CC(C)C)[C@H](CCCc2ccccc2)C(=O)NO)C1=O` [Compound H, 2(R)-[1(S)-(Hydroxycarbamoyl)-4-phenylbutyl]-4-methyl-N-[4(S)-[2-(methylthio)ethyl]-2,5-dioxo-1-imidazolidinyl]valeramide] it was 0.234 µM. The result for `CC(C)C[C@@H](C(=O)NN1C(=O)N[C@@H](CO)C1=O)[C@H](CCCc1ccccc1)C(=O)NO` [Compound I, 2(R)-[1(S)-(Hydroxycarbamoyl)-4-phenylbutyl]-N-[4(S)-(hydroxymethyl)-2,5-dioxo-1-imidazolidinyl]-4-methylvaleramide] reads 0.387 µM; that for `CC(C)C[C@@H](C(=O)NN1C(=O)[C@H](C(C)C)NC1=S)[C@H](CCCc1ccccc1)C(=O)NO` [Compound J, 2(R)-[1(S)-(Hydroxycarbamoyl)-4-phenylbutyl]-N-(4(S)-isopropyl-5-oxo-2-thioxo-1-imidazolidinyl)-4-methylvaleramide], 0.597 µM; that for `CC[C@H](C)[C@@H]1NC(=O)N(NC(=O)[C@H](CC(C)C)[C@H](C/C=C/c2ccccc2)C(=O)NO)C1=O` [Compound K, (E)-2(R)-[1(S)-(Hydroxycarbamoyl)-4-phenyl-3-butenyl]-N-[4(S)-(1(S)-methylpropyl)-2,5-dioxo-1-imidazolidinyl]-4-methylvaleramide], 0.162 µM.

In the case of `CC(C)C[C@@H](C(=O)NN1C(=O)N[C@@H](CO)C1=O)[C@H](C/C=C/c1ccccc1)C(=O)NO` [Compound L, (E)-2(R)-[1(S)-(Hydroxycarbamoyl)-4-phenyl-3-butenyl]-N-[4(S)-(hydroxymethyl)-2,5-dioxo-1-imidazolidinyl]-4-methylvaleramide], the IC50 came to 0.302 µM.

For the compound `CC(C)C[C@@H](C(=O)NN1C(=O)NC2(CCN(C(=O)OCc3ccccc3)CC2)C1=O)[C@H](CCCc1ccccc1)C(=O)NO` [Compound M, Benzyl 3-[2(R)-[1(S)-(hydroxycarbamoyl)-4-phenylbutyl]-4-methylvaleramido]-2,4-dioxo-1,3,8-triazaspiro[4,5]decane-8-carboxylate], the IC50 stood at 0.62 µM. The result for `CC(C)C[C@@H](C(=O)Nn1c(=O)[nH]c2ccsc2c1=O)[C@H](CCCc1ccccc1)C(=O)NO` [Compound N, N-(1,2,3,4-Tetrahydro-2,4-dioxothieno[3,2-d]pyrimidin-3-yl)-2(R)-[1(S)-(hydroxycarbamoyl)-4-phenylbutyl]-4-methylvaleramide] reads 0.172 µM; that for `CC(C)C[C@@H](C(=O)Nn1c(=O)[nH]c2cscc2c1=O)[C@H](CCCc1ccccc1)C(=O)NO` [Compound O, N-(1,2,3,4-Tetrahydro-2,4-dioxothieno[3,4-d]pyrimidin-3-yl)-2(R)-[1(S)-(hydroxycarbamoyl)-4-phenylbutyl]-4-methylvaleramide], 0.177 µM; that for `COC[C@@H]1NC(=O)N(NC(=O)[C@H](CC(C)C)[C@H](CCCc2ccccc2)C(=O)NO)C1=O` [Compound P], 0.346 µM.

Regarding `CC(C)C[C@@H](C(=O)NN1C(=O)CNC1=O)[C@H](CCCc1ccccc1)C(=O)NO` [Compound Q, 2(R)-[1(S)-(Hydroxycarbamoyl)-4-phenylbutyl]-4-methyl-N-(2,5-dioxo-1-imidazolidinyl)valeramide], the IC50 was determined as 0.234 µM. In the case of `CC(=O)N1CCC2(CC1)NC(=O)N(NC(=O)[C@H](CC(C)C)[C@H](CCCc1ccccc1)C(=O)NO)C2=O` [Compound R, 1-(8-Acetyl-2,4-dioxo-1,3,8-triazaspiro[4. 5]decan-3-yl)-2(R)-[1(S)-(hydroxycarbamoyl)-4-phenylbutyl]-4-methylvaleramide] it was 0.481 µM. `CC(C)C[C@@H](C(=O)NN1C(=O)CNC1=O)[C@H](Cc1ccc(-c2ccccc2)cc1)C(=O)NO` [Compound S, 2(R)-[2-(4-Biphenylyl)-1(S)-(hydroxycarbamoyl)ethyl]-N-(2,5-dioxo-1-imidazolidinyl)-4-methylvaleramide]: the IC50 was found to be 0.308 µM.

For the origin of these results see patent US6281363A, “Cyclic hydrazine derivatives” (Hoffmann-La Roche Inc., priority 1998, dated 2001).
